Experimental data: US20120132797A1, “MEANS AND METHODS FOR DIAGNOSING THYROID DISORDERS” (BASF SE, priority 2009, published 2012)

Test system: Wistar (Crl:WI(Han)) rats
Test: Mass spectrometry-based plasma metabolite profiling of rats treated with known inducers of thyroid function impairment
Type: in vivo, rat
Settings: ratio of group medians vs controls
Method in brief: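 Rats aged 10-11 weeks, 5/sex/dose vs 10/sex controls, dosed at low and high levels; retro-orbital plasma taken under isoflurane on days 7, 14 and 28 after 16-20 h fast. Polar and non-polar fractions profiled by GC-MS (derivatised) and LC-MS/MS (MRM plus full scan), normalised to pool samples; Welch t-test by sex and day gives p-values and median ratios.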

[1] = female rats, fh7 (study day 7), Table 3
[2] = female rats, fh14 (study day 14), Table 3
[3] = female rats, fh28 (study day 28), Table 3
[4] = male rats, mh7 (study day 7), Table 4
[5] = male rats, mh14 (study day 14), Table 4
[6] = male rats, mh28 (study day 28), Table 4

Compound: Cc1c[nH]nc1C.O=P(O)(O)O [3,4-Dimethylpyrazolphosphat]
- Arachidonic acid (C20:cis[58,11,14]4) [1]: 1.36
- Behenic acid (C22:0) [1]: 1.31
- Cholesterol [1]: 1.24
- Cysteine [1]: 0.78
- Docosahexaenoic acid (C22:cis[4,7,10,13,16,19]6) [1]: 2.15
- Dodecanol [1]: 1.06
- Eicosanoic acid (C20:0) [1]: 1.14
- Glycerol phosphate [1]: 1.29
- Heptadecanoic acid (C17:0) [1]: 1.30
- Linoleic acid (C18:cis[9,12]2) [1]: 1.29
- Nervonic acid C24:(cis[15]1) [1]: 1.60
- Palmitic acid (C16:0) [1]: 1.34
- Sphingomyelin (d18:1, C16:0) [1]: 1.28
- Stearic acid (C18:0) [1]: 1.30
- Threonic acid [1]: 1.51
- dihomo-gamma-Linolenic acid (C20:cis[8,11,14]3) [1]: 1.36
- erythro-Sphingosine [1]: 1.40
- gamma-Linolenic acid (C18:cis[6,9,12]3) [1]: 1.17
- myo-Inositol-2-phosphate [1]: 1.26
- threo-Sphingosine [1]: 1.27
- Arachidonic acid (C20:cis[58,11,14]4) [2]: 1.75
- Behenic acid (C22:0) [2]: 1.82
- Cholesterol [2]: 1.73
- Cysteine [2]: 1.29
- Docosahexaenoic acid (C22:cis[4,7,10,13,16,19]6) [2]: 2.19
- Dodecanol [2]: 1.17
- Eicosanoic acid (C20:0) [2]: 1.61
- Glycerol phosphate [2]: 1.69
- Heptadecanoic acid (C17:0) [2]: 1.34
- Linoleic acid (C18:cis[9,12]2) [2]: 1.29
- Nervonic acid C24:(cis[15]1) [2]: 1.60
- Palmitic acid (C16:0) [2]: 1.34
- Sphingomyelin (d18:1, C16:0) [2]: 1.35
- Stearic acid (C18:0) [2]: 1.71
- Threonic acid [2]: 1.17
- dihomo-gamma-Linolenic acid (C20:cis[8,11,14]3) [2]: 1.80
- erythro-Sphingosine [2]: 1.90
- gamma-Linolenic acid (C18:cis[6,9,12]3) [2]: 1.87
- myo-Inositol-2-phosphate [2]: 1.78
- threo-Sphingosine [2]: 1.72
- Arachidonic acid (C20:cis[58,11,14]4) [3]: 1.67
- Behenic acid (C22:0) [3]: 1.43
- Cholesterol [3]: 1.69
- Cysteine [3]: 1.00
- Docosahexaenoic acid (C22:cis[4,7,10,13,16,19]6) [3]: 2.25
- Dodecanol [3]: 1.26
- Eicosanoic acid (C20:0) [3]: 1.38
- Glycerol phosphate [3]: 1.55
- Heptadecanoic acid (C17:0) [3]: 1.39
- Linoleic acid (C18:cis[9,12]2) [3]: 1.44
- Nervonic acid C24:(cis[15]1) [3]: 1.78
- Palmitic acid (C16:0) [3]: 1.55
- Sphingomyelin (d18:1, C16:0) [3]: 1.58
- Stearic acid (C18:0) [3]: 1.62
- Threonic acid [3]: 1.36
- dihomo-gamma-Linolenic acid (C20:cis[8,11,14]3) [3]: 1.86
- erythro-Sphingosine [3]: 1.54
- gamma-Linolenic acid (C18:cis[6,9,12]3) [3]: 1.96
- myo-Inositol-2-phosphate [3]: 1.91
- threo-Sphingosine [3]: 1.58

Compound: Cc1cccc(C)c1N(Cn1cccn1)C(=O)CCl [Metazachlor]
- Behenic acid (C22:0) [4]: 1.92
- Cholesterol [4]: 1.71
- Citrate [4]: 0.99
- Cytosine [4]: 0.64
- Galactose, lipid fraction [4]: 1.81
- Glycerol phosphate [4]: 1.63
- Glycine [4]: 1.12
- Lignoceric acid (C24:0) [4]: 1.60
- Mannose [4]: 1.22
- Nervonic acid C24:(cis[15]1) [4]: 3.17
- Phospha-tidylcholine (C18:0, 18:2) [4]: 1.40
- Sphingomyelin (d18:1, C16:0) [4]: 2.54
- Stearic acid (C18:0) [4]: 1.45
- Threonic acid [4]: 1.16
- dihomo-gamma-Linolenic acis (C20:cis[8,11,14]3) [4]: 2.41
- erythro-Sphingosine [4]: 2.31
- myo-Inositol-2-phosphate [4]: 2.17
- threo-Sphingosine [4]: 2.05
- Behenic acid (C22:0) [5]: 2.47
- Cholesterol [5]: 2.15
- Citrate [5]: 0.94
- Cytosine [5]: 0.75
- Galactose, lipid fraction [5]: 2.27
- Glycerol phosphate [5]: 2.20
- Glycine [5]: 1.10
- Lignoceric acid (C24:0) [5]: 2.38
- Mannose [5]: 1.37
- Nervonic acid C24:(cis[15]1) [5]: 4.00
- Phospha-tidylcholine (C18:0, 18:2) [5]: 1.55
- Sphingomyelin (d18:1, C16:0) [5]: 2.36
- Stearic acid (C18:0) [5]: 2.36
- Threonic acid [5]: 1.25
- dihomo-gamma-Linolenic acis (C20:cis[8,11,14]3) [5]: 5.18
- erythro-Sphingosine [5]: 3.47
- myo-Inositol-2-phosphate [5]: 4.01
- threo-Sphingosine [5]: 3.22
- Behenic acid (C22:0) [6]: 2.05
- Cholesterol [6]: 2.43
- Citrate [6]: 1.08
- Cytosine [6]: 0.66
- Galactose, lipid fraction [6]: 2.57
- Glycerol phosphate [6]: 2.36
- Glycine [6]: 1.26
- Lignoceric acid (C24:0) [6]: 2.11
- Mannose [6]: 1.46
- Nervonic acid C24:(cis[15]1) [6]: 3.63
- Phospha-tidylcholine (C18:0, 18:2) [6]: 1.51
- Sphingomyelin (d18:1, C16:0) [6]: 2.32
- Stearic acid (C18:0) [6]: 2.59
- Threonic acid [6]: 1.36
- dihomo-gamma-Linolenic acis (C20:cis[8,11,14]3) [6]: 3.36
- erythro-Sphingosine [6]: 3.68
- myo-Inositol-2-phosphate [6]: 2.79
- threo-Sphingosine [6]: 3.54
